From patent publication US20260297080A1, “BICYCLIC COMPOUNDS AS CDK INHIBITORS” (BeOne Medicines I GmbH, priority 2022, published 2026)

Key:
[1] = target: CDK2/Cyclin E1 (Homo sapiens, UniProt P24941); assay: CDK2/Cyclin E1 Biochemical Assay (TR-FRET), 0.060 mM ATP; settings: 0.15 μM Rb (Ser780)-biotin substrate, pH7.0, 60 min preincubation, 120 min reaction, room temperature
Procedure, shortened: (§1)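 IC50 was from a four-parameter logistic fit of the 665/620 nm TR-FRET ratio (Eu anti-pRb Ser780 mAb, streptavidin-XL665). Compound (0-10 μM) was preincubated 60 min with enzyme, then reacted 120 min at room temperature with 0.15 μM biotinylated Rb (Ser780) peptide. ATP was 0.015 mM for CDK1/Cyclin B1 and 0.060 mM for CDK2/Cyclin E1; buffer was HEPES pH7.0.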

[2] = target: CDK1/Cyclin B1 (Homo sapiens, UniProt P06493); assay: CDK1/Cyclin B1 Biochemical Assay (TR-FRET), 0.015 mM ATP; settings: 0.15 μM Rb (Ser780)-biotin substrate, pH7.0, 60 min preincubation, 120 min reaction, room temperature
CDK1/Cyclin B1, sequence (P06493 whole entry): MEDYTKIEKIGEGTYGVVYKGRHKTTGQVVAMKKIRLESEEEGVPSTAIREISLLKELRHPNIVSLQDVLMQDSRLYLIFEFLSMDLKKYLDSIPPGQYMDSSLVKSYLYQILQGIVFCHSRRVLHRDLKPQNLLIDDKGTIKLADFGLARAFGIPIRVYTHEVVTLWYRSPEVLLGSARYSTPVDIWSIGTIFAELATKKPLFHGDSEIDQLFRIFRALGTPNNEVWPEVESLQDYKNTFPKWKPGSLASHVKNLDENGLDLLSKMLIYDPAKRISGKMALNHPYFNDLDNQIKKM
CDK1/Cyclin B1, sequence (P14635 whole entry partner): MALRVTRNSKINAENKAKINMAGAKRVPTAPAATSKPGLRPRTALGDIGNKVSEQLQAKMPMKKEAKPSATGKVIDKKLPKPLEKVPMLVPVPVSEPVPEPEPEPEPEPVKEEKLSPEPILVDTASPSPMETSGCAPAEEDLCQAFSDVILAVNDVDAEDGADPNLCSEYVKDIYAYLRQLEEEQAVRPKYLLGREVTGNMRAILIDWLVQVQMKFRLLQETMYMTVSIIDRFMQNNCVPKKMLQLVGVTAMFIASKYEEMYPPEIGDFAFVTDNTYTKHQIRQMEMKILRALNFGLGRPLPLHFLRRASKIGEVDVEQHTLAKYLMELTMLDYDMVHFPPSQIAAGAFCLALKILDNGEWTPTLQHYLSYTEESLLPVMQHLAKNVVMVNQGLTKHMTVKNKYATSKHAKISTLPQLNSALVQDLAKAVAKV
Procedure, shortened: as §1

SMILES | IC50 [1] [µM] | IC50 [2] [µM]
CC[C@H](C)NC(=O)O[C@H]1CC[C@@H](c2cc(Nc3ccc4c(c3F)CNS4(=O)=O)n[nH]2)C1 (single isomer, unassigned) [Example 139b] | 0.0009 | 0.052
CC[C@H](C)NC(=O)O[C@H]1CC[C@@H](c2cc(Nc3ccc4c(c3F)S(=O)(=O)NC4)n[nH]2)C1 (relative stereo) [Example 188, cis-3-(3-((7-fluoro-1,1-dioxido-2,3-dihydrobenzo[d]isothiazol-6-yl)amino)-1H-pyrazol-5-yl)cyclopentyl((S)-sec-butyl)carbamate] | 0.0008 | 0.029
CC(C)NC(=O)O[C@H]1CC[C@@H](c2cc(Nc3ccc4c(c3F)S(=O)(=O)N(C(C)C)C4)n[nH]2)C1 (relative stereo) [Example 193, cis-3-(3-((7-fluoro-2-isopropyl-1,1-dioxido-2,3-dihydrobenzo[d]isothiazol-6-yl)amino)-1H-pyrazol-5-yl)cyclopentyl isopropylcarbamate] | 0.016 | 0.362
CCCNC(=O)O[C@H]1CC[C@@H](c2cc(Nc3ccc4c(c3Cl)CNS4(=O)=O)n[nH]2)C1 (single isomer, unassigned) [Example 39b, cis-3-(3-((4-chloro-1,1-dioxido-2,3-dihydrobenzo[d]isothiazol-5-yl)amino)-1H-pyrazol-5-yl)cyclopentyl propylcarbamate] | 0.026 | 0.39
CC1(NC(=O)O[C@H]2CC[C@@H](c3cc(Nc4ccc5c(c4F)CS(=O)(=O)N5CC(F)(F)F)n[nH]3)C2)CC1 (single isomer, unassigned) [Example 264a, cis-3-(3-((4-fluoro-2,2-dioxido-1-(2,2,2-trifluoroethyl)-1,3-dihydrobenzo[c]isothiazol-5-yl)amino)-1H-pyrazol-5-yl)cyclopentyl(1-methylcyclopropyl)carbamate] | 0.0013 | 0.065
CN1c2ccc(Nc3cc([C@@H]4CC[C@H](OC(=O)NC5(CO)CC5)C4)[nH]n3)cc2CS1(=O)=O (relative stereo) [Example 342, cis-3-(3-((1-methyl-2,2-dioxido-1,3-dihydrobenzo[c]isothiazol-5-yl)amino)-1H-pyrazol-5-yl)cyclopentyl(1-(hydroxymethyl)cyclopropyl)carbamate] | 0.0049 | 0.061
CCCNC(=O)O[C@H]1CC[C@@H](c2cc(Nc3ccc4c(c3F)CN(CCO)S4(=O)=O)n[nH]2)C1 (relative stereo) [Example 126, cis-3-(3-((4-fluoro-2-(2-hydroxyethyl)-1,1-dioxido-2,3-dihydrobenzo[d]isothiazol-5-yl)amino)-1H-pyrazol-5-yl)cyclopentyl propylcarbamate] | 0.0083 | 0.261
O=C(NC1(CO)CC1)O[C@H]1CC[C@@H](c2cc(Nc3ccc4c(c3F)CN(C3CC3)S4(=O)=O)n[nH]2)C1 (relative stereo) [Example 360, cis-3-(3-((2-cyclopropyl-4-fluoro-1,1-dioxido-2,3-dihydrobenzo[d]isothiazol-5-yl)amino)-1H-pyrazol-5-yl)cyclopentyl(1-(hydroxymethyl)cyclopropyl)carbamate] | 0.012 | 0.358
CC(C)NC(=O)O[C@H]1CC[C@@H](c2cc(Nc3ccc4c(c3F)S(=O)(=O)N(C)C4)n[nH]2)C1 (relative stereo) [Example 190, cis-3-(3-((7-fluoro-2-methyl-1,1-dioxido-2,3-dihydrobenzo[d]isothiazol-6-yl)amino)-1H-pyrazol-5-yl)cyclopentyl isopropylcarbamate] | 0.0081 | 0.328
CC(C)NC(=O)O[C@H]1CC[C@@H](c2cc(Nc3ccc4c(c3F)CN(C3CC3)S4(=O)=O)n[nH]2)C1 (single isomer, unassigned) [Example 116b, cis-3-(3-((2-cyclopropyl-4-fluoro-1,1-dioxido-2,3-dihydrobenzo[d]isothiazol-5-yl)amino)-1H-pyrazol-5-yl)cyclopentyl isopropylcarbamate] | 0.0054 | 0.189
CC(C)NC(=O)O[C@H]1CC[C@@H](c2cc(Nc3ccc4c(c3F)S(=O)(=O)NC4)n[nH]2)C1 (single isomer, unassigned) [Example 186b, cis-3-(3-((7-fluoro-1,1-dioxido-2,3-dihydrobenzo[d]isothiazol-6-yl)amino)-1H-pyrazol-5-yl)cyclopentyl isopropylcarbamate] | 0.0017 | 0.044
CC1(NC(=O)O[C@H]2CC[C@@H](c3cc(Nc4ccc5c(c4F)CNS5(=O)=O)n[nH]3)C2)CCOC1 (single isomer, unassigned) [Example 162c, cis-3-(3-((4-fluoro-1,1-dioxido-2,3-dihydrobenzo[d]isothiazol-5-yl)amino)-1H-pyrazol-5-yl)cyclopentyl(3-methyltetrahydrofuran-3-yl)carbamate] | 0.0031 | 0.408
CN1Cc2c(ccc(Nc3cc([C@@H]4CC[C@H](OC(=O)NC5(C)COC5)C4)[nH]n3)c2F)S1(=O)=O (single isomer, unassigned) [Example 352a, cis-3-(3-((4-fluoro-2-methyl-1,1-dioxido-2,3-dihydrobenzo[d]isothiazol-5-yl)amino)-1H-pyrazol-5-yl)cyclopentyl(3-methyloxetan-3-yl)carbamate] | 0.014 | 0.365
CC(C)NC(=O)O[C@H]1CC[C@@H](c2cc(Nc3cc4c(cc3F)N(CCO)S(=O)(=O)C4)n[nH]2)C1 (single isomer, unassigned) [Example 296b, cis-3-(3-((6-fluoro-1-(2-hydroxyethyl)-2,2-dioxido-1,3-dihydrobenzo[c]isothiazol-5-yl)amino)-1H-pyrazol-5-yl)cyclopentyl isopropylcarbamate] | 0.0084 | 0.497
O=C(NC1CC2(CC2)C1)O[C@H]1CC[C@@H](c2cc(Nc3ccc4c(c3F)CNS4(=O)=O)n[nH]2)C1 (relative stereo) [Example 160, cis-3-(3-((4-fluoro-1,1-dioxido-2,3-dihydrobenzo[d]isothiazol-5-yl)amino)-1H-pyrazol-5-yl)cyclopentyl spiro[2.3]hexan-5-ylcarbamate] | 0.105 | 0.579
Cc1cc2c(cc1Nc1cc([C@@H]3CC[C@H](OC(=O)NC(C)C)C3)[nH]n1)CS(=O)(=O)N2 (relative stereo) [Example 241, 3-(3-((6-methyl-2,2-dioxido-1,3-dihydrobenzo[c]isothiazol-5-yl)amino)-1H-pyrazol-5-yl)cyclopentyl isopropylcarbamate] | 0.128 | 4.47
COCC(C)NC(=O)O[C@H]1CC[C@@H](c2cc(Nc3ccc4c(c3F)CS(=O)(=O)N4C3CC3)n[nH]2)C1 (relative stereo) [Example 367, cis-3-(3-((1-cyclopropyl-4-fluoro-2,2-dioxido-1,3-dihydrobenzo[c]isothiazol-5-yl)amino)-1H-pyrazol-5-yl)cyclopentyl(1-methoxypropan-2-yl)carbamate] | 0.0017 | 0.117
CC(C)NC(=O)O[C@H]1CC[C@@H](c2cc(Nc3cnc4c(c3)CNS4(=O)=O)n[nH]2)C1 (relative stereo) [Example 31, cis-3-(3-((1,1-dioxido-2,3-dihydroisothiazolo[5,4-b]pyridin-5-yl)amino)-1H-pyrazol-5-yl)cyclopentyl isopropylcarbamate] | 0.007 | 0.166
[2H]C([2H])([2H])N1c2ccc(Nc3cc([C@@H]4CC[C@H](OC(=O)NC(C)C)C4)[nH]n3)cc2CS1(=O)=O (relative stereo) [Example 206, cis-3-(3-((1-(methyl-d3)-2,2-dioxido-1,3-dihydrobenzo[c]isothiazol-5-yl)amino)-1H-pyrazol-5-yl)cyclopentyl isopropylcarbamate] | 0.0064 | 0.063
CC[C@H](C)NC(=O)O[C@H]1CC[C@@H](c2cc(Nc3ccc4c(c3F)CN(C3CC3)S4(=O)=O)n[nH]2)C1 (racemic) [Example 117, cis-3-(3-((2-cyclopropyl-4-fluoro-1,1-dioxido-2,3-dihydrobenzo[d]isothiazol-5-yl)amino)-1H-pyrazol-5-yl)cyclopentyl((S)-sec-butyl)carbamate] | 0.0096 | 0.431
CC(NC(=O)O[C@H]1CC[C@@H](c2cc(Nc3ccc4c(c3F)CNS4(=O)=O)n[nH]2)C1)C1CC1 (relative stereo) [Example 156, cis-3-(3-((4-fluoro-1,1-dioxido-2,3-dihydrobenzo[d]isothiazol-5-yl)amino)-1H-pyrazol-5-yl)cyclopentyl(1-cyclopropylethyl)carbamate] | 0.0017 | 0.076
O=C(NCCC(F)(F)F)O[C@H]1CC[C@@H](c2cc(Nc3ccc4c(c3F)CNS4(=O)=O)n[nH]2)C1 (racemic) [Example 154, cis-3-(3-((4-fluoro-1,1-dioxido-2,3-dihydrobenzo[d]isothiazol-5-yl)amino)-1H-pyrazol-5-yl)cyclopentyl(3,3,3-trifluoropropyl)carbamate] | 0.0017 | 0.333
O=C(O[C@H]1CC[C@@H](c2cc(Nc3ccc4c(c3)CNS4(=O)=O)n[nH]2)C1)N1CCC(O)C1 (relative stereo) [Example 175, cis-3-(3-((1,1-dioxido-2,3-dihydrobenzo[d]isothiazol-5-yl)amino)-1H-pyrazol-5-yl)cyclopentyl 3-hydroxypyrrolidine-1-carboxylate] | 0.01 | 0.359
CCCNC(=O)O[C@H]1CC[C@@H](c2cc(Nc3ccc4c(c3F)CS(=O)(=O)N4C)n[nH]2)C1 (single isomer, unassigned) [Example 256b, cis-3-(3-((4-fluoro-1-methyl-2,2-dioxido-1,3-dihydrobenzo[c]isothiazol-5-yl)amino)-1H-pyrazol-5-yl)cyclopentyl propylcarbamate] | 0.004 | 0.13
